Measured values from patent publication US20200354426A1 (MEDIMMUNE LIMITED, priority 2016, published 2020).
Numbered stars: 1 amine (or outer) side, 2 acyl side, 3 side chain; on linkers, the order of the positions; unused ones are H or OH. Side chains are listed from the residue outwards. Peptide text beside a SMILES is read from it. * marks the point of attachment. γGlu = O=C(O)[C@H](CCC(=O)[*:2])N[*:1]; Palmitoyl = CCCCCCCCCCCCCCCC(=O)*; Ahx = NCCCCCC(=O)O

Columns and labels:
Assay in all cases: cAMP activity assay in assay medium (assay 1)
Type in all cases: cell-based
Human GLP1R = Human GLP1R (Homo sapiens, UniProt P43220); design: expressed in transfected cells; details: assay medium; Table 4; read-out: hGLP1R EC50
Text: (§1) Biological Activity of Peptides in Cell-Based cAMP Activity Assay (Assay 1):
(§2) All sample dilutions were made in duplicate.

Human GIPr = target: T1, Human GIPr (Homo sapiens, UniProt P48546); details: assay medium; Table 4; read-out: hGIPR EC50
T1 construct: expressed in transfected cells
T1 sequence (P48546 22-466): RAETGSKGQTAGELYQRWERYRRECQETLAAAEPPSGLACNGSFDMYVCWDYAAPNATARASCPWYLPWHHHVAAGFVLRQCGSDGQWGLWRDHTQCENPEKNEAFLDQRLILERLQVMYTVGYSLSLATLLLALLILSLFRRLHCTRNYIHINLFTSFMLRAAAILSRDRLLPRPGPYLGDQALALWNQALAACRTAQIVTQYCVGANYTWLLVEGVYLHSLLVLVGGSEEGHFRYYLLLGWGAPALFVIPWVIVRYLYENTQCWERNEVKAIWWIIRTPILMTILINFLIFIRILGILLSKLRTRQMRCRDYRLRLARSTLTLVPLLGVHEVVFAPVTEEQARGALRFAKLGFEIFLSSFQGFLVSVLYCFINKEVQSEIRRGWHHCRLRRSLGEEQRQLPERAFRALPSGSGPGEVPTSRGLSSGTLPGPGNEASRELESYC
Text: as §1, §2

Human GlucR = target: T2, Human GlucR (Homo sapiens, UniProt P47871); details: assay medium; Table 4; read-out: hGlucR EC50
T2 construct: expressed in transfected cells
Text: as §1, §2

Human GLP1R, sequence (P43220 24-463): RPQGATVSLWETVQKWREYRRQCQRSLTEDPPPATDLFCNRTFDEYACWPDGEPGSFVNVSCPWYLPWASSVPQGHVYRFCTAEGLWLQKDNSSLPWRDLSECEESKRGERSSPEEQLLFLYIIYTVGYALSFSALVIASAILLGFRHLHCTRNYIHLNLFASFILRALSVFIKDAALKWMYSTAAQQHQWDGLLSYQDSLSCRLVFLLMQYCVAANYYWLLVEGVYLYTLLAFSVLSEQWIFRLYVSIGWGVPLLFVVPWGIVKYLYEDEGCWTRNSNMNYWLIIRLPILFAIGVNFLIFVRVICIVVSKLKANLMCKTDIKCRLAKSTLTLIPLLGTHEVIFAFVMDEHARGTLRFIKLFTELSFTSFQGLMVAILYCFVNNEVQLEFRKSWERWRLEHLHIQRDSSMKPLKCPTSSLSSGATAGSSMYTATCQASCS
T2 sequence (P47871 26-477): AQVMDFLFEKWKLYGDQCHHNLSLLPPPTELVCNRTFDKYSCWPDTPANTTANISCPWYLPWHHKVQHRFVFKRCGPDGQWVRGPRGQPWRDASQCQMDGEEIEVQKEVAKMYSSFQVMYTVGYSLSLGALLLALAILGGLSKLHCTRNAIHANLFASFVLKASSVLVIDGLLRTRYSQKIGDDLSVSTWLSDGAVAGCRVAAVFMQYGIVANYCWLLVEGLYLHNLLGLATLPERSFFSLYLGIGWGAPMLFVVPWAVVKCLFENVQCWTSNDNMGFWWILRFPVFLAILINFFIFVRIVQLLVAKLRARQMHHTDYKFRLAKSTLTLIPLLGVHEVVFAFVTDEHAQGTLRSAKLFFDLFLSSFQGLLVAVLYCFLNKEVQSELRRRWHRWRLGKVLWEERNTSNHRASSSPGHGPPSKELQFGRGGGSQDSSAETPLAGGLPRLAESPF

SMILES | EC50 (Human GLP1R) | EC50 (Human GIPr) | EC50 (Human GlucR)
CCCCCCCCCCCCCCCC(=O)N[C@@H](CCC(=O)NCCCC[C@H](NC(=O)[C@H](CO)NC(=O)[C@H](CC(=O)O)NC(=O)[C@H](CC(C)C)NC(=O)[C@H](Cc1ccc(O)cc1)NC(=O)[C@H](CCCCN)NC(=O)[C@H](CO)NC(=O)[C@H](Cc1ccc(O)cc1)NC(=O)[C@H](CC(=O)O)NC(=O)[C@H](CO)NC(=O)[C@@H](NC(=O)[C@H](Cc1ccccc1)NC(=O)[C@@H](NC(=O)CNC(=O)[C@H](CCC(N)=O)NC(=O)CNC(=O)[C@@H](N)Cc1c[nH]cn1)[C@@H](C)O)[C@@H](C)O)C(=O)N[C@@H](CCCNC(=N)N)C(=O)N[C@@H](C)C(=O)N[C@@H](CCC(N)=O)C(=O)N[C@@H](CC(=O)O)C(=O)N[C@@H](Cc1ccccc1)C(=O)N[C@H](C(=O)N[C@@H](CCC(=O)O)C(=O)N[C@@H](Cc1c[nH]c2ccccc12)C(=O)N[C@@H](CC(C)C)C(=O)N[C@H](C(=O)N[C@@H](C)C(=O)NCC(=O)NCC(N)=O)C(C)C)C(C)C)C(=O)O [g679] (H-HGQGTFTSDYSKYLDSK([γGlu-Palmitoyl])RAQDFVEWLVAGG-NH2; N-terminus assumed) | 0.135 nM | 117 nM | 0.189 nM
CCCCCCCCCCCCCCCC(=O)N[C@@H](CCC(=O)NCCCC[C@H](NC(=O)[C@H](CO)NC(=O)[C@H](CC(=O)O)NC(=O)[C@H](CC(C)C)NC(=O)[C@H](Cc1ccc(O)cc1)NC(=O)[C@H](CCCCN)NC(=O)[C@H](CO)NC(=O)[C@H](Cc1ccc(O)cc1)NC(=O)[C@H](CC(=O)O)NC(=O)[C@H](CO)NC(=O)[C@@H](NC(=O)[C@H](Cc1ccccc1)NC(=O)[C@@H](NC(=O)CNC(=O)[C@H](CCC(N)=O)NC(=O)CNC(=O)[C@@H](N)Cc1c[nH]cn1)[C@@H](C)O)[C@@H](C)O)C(=O)N[C@@H](CCCNC(=N)N)C(=O)N[C@@H](C)C(=O)N[C@@H](CCC(=O)O)C(=O)N[C@@H](CC(=O)O)C(=O)N[C@@H](Cc1ccccc1)C(=O)N[C@H](C(=O)N[C@@H](CCC(=O)O)C(=O)N[C@@H](Cc1c[nH]c2ccccc12)C(=O)N[C@@H](CC(C)C)C(=O)N[C@H](C(=O)N[C@@H](C)C(=O)NCC(=O)NCC(N)=O)C(C)C)C(C)C)C(=O)O [g680] (H-HGQGTFTSDYSKYLDSK([γGlu-Palmitoyl])RAEDFVEWLVAGG-NH2; N-terminus assumed) | 0.195 nM | 96.7 nM | 3.68 nM
CCCCCCCCCCCCCCCC(=O)N[C@@H](CCC(=O)NCCCC[C@H](NC(=O)[C@H](CO)NC(=O)[C@H](CC(=O)O)NC(=O)[C@H](CC(C)C)NC(=O)[C@H](Cc1ccc(O)cc1)NC(=O)[C@H](CCCCN)NC(=O)[C@H](CO)NC(=O)[C@H](Cc1ccc(O)cc1)NC(=O)[C@H](CC(=O)O)NC(=O)[C@H](CO)NC(=O)[C@@H](NC(=O)[C@H](Cc1ccccc1)NC(=O)[C@@H](NC(=O)CNC(=O)[C@H](CCC(=O)O)NC(=O)CNC(=O)[C@@H](N)Cc1c[nH]cn1)[C@@H](C)O)[C@@H](C)O)C(=O)N[C@@H](CCCNC(=N)N)C(=O)N[C@@H](C)C(=O)N[C@@H](CCC(=O)O)C(=O)N[C@@H](CC(=O)O)C(=O)N[C@@H](Cc1ccccc1)C(=O)N[C@H](C(=O)N[C@@H](CCC(=O)O)C(=O)N[C@@H](Cc1c[nH]c2ccccc12)C(=O)N[C@@H](CC(C)C)C(=O)N[C@H](C(=O)N[C@@H](C)C(=O)NCC(=O)NCC(N)=O)C(C)C)C(C)C)C(=O)O [g681] (H-HGEGTFTSDYSKYLDSK([γGlu-Palmitoyl])RAEDFVEWLVAGG-NH2; N-terminus assumed) | 0.283 nM | 124 nM | 39.9 nM
CCCCCCCCCCCCCCCC(=O)NCCCCCC(=O)NCCCC[C@H](NC(=O)[C@H](CO)NC(=O)[C@H](CC(=O)O)NC(=O)[C@H](CC(C)C)NC(=O)[C@H](Cc1ccc(O)cc1)NC(=O)[C@H](CCC(=O)O)NC(=O)[C@H](CO)NC(=O)[C@H](Cc1ccc(O)cc1)NC(=O)[C@H](CC(=O)O)NC(=O)[C@H](CO)NC(=O)[C@@H](NC(=O)[C@H](Cc1ccccc1)NC(=O)[C@@H](NC(=O)CNC(=O)[C@H](CCC(N)=O)NC(=O)CNC(=O)[C@@H](N)Cc1c[nH]cn1)[C@@H](C)O)[C@@H](C)O)C(=O)N[C@@H](CCCNC(=N)N)C(=O)N[C@@H](C)C(=O)N[C@@H](CCCNC(=N)N)C(=O)N[C@@H](CC(=O)O)C(=O)N[C@@H](Cc1ccccc1)C(=O)N[C@H](C(=O)N[C@@H](C)C(=O)N[C@@H](Cc1c[nH]c2ccccc12)C(=O)N[C@@H](CC(C)C)C(=O)N[C@@H](CCC(=O)O)C(=O)N[C@@H](CCCNC(=N)N)C(=O)NCC(=O)NCC(N)=O)C(C)C [g684] (H-HGQGTFTSDYSEYLDSK([Ahx-Palmitoyl])RARDFVAWLERGG-NH2; N-terminus assumed) | 0.0151 nM | 146 nM | 0.164 nM
CCCCCCCCCCCCCCCC(=O)N[C@@H](CCC(=O)NCCCC[C@H](NC(=O)[C@H](CC(=O)O)NC(=O)[C@H](CO)NC(=O)[C@@H](NC(=O)[C@H](Cc1ccccc1)NC(=O)[C@@H](NC(=O)CNC(=O)[C@H](CCC(N)=O)NC(=O)[C@H](CO)NC(=O)[C@@H](N)Cc1c[nH]cn1)[C@@H](C)O)[C@@H](C)O)C(=O)N[C@@H](CO)C(=O)N[C@@H](CCCCN)C(=O)N[C@@H](Cc1ccc(O)cc1)C(=O)N[C@@H](CC(C)C)C(=O)N[C@@H](CC(=O)O)C(=O)N[C@@H](CO)C(=O)N[C@@H](CCCNC(=N)N)C(=O)N[C@@H](CCCNC(=N)N)C(=O)N[C@@H](C)C(=O)N[C@@H](CCC(N)=O)C(=O)N[C@@H](CC(=O)O)C(=O)N[C@@H](Cc1ccccc1)C(=O)N[C@H](C(=O)N[C@@H](CCC(N)=O)C(=O)N[C@@H](Cc1c[nH]c2ccccc12)C(=O)N[C@@H](CC(C)C)C(=O)N[C@H](C(=O)N[C@@H](C)C(=O)NCC(=O)NCC(N)=O)C(C)C)C(C)C)C(=O)O [g715] (H-HSQGTFTSDK([γGlu-Palmitoyl])SKYLDSRRAQDFVQWLVAGG-NH2; N-terminus assumed) | 0.0204 nM | 0.998 nM | 0.00253 nM
CCCCCCCCCCCCCCCC(=O)N[C@@H](CCC(=O)NCCCC[C@H](NC(=O)[C@H](Cc1ccc(O)cc1)NC(=O)[C@H](CC(=O)O)NC(=O)[C@H](CO)NC(=O)[C@@H](NC(=O)[C@H](Cc1ccccc1)NC(=O)[C@@H](NC(=O)CNC(=O)[C@H](CCC(N)=O)NC(=O)[C@H](CO)NC(=O)[C@@H](N)Cc1c[nH]cn1)[C@@H](C)O)[C@@H](C)O)C(=O)N[C@@H](CCCCN)C(=O)N[C@@H](Cc1ccc(O)cc1)C(=O)N[C@@H](CC(C)C)C(=O)N[C@@H](CC(=O)O)C(=O)N[C@@H](CO)C(=O)N[C@@H](CCCNC(=N)N)C(=O)N[C@@H](CCCNC(=N)N)C(=O)N[C@@H](C)C(=O)N[C@@H](CCC(N)=O)C(=O)N[C@@H](CC(=O)O)C(=O)N[C@@H](Cc1ccccc1)C(=O)N[C@H](C(=O)N[C@@H](CCC(N)=O)C(=O)N[C@@H](Cc1c[nH]c2ccccc12)C(=O)N[C@@H](CC(C)C)C(=O)N[C@H](C(=O)N[C@@H](C)C(=O)NCC(=O)NCC(N)=O)C(C)C)C(C)C)C(=O)O [g716] (H-HSQGTFTSDYK([γGlu-Palmitoyl])KYLDSRRAQDFVQWLVAGG-NH2; N-terminus assumed) | 12.9 nM | 11.8 nM | 2.46 nM
